US20140303164A1, “THERAPEUTIC COMPOUNDS” (Gilead Sciences, Inc., priority 2013, published 2014)

Columns and labels:
HIV-IIIb = assay: Test A: Antiviral Assay in MT4 Cells; assay type: cell-based, HIV-1; conditions: Human immunodeficiency virus 1, IIIB, MT4, 120 h; for inhibition at 0.2 µM: read-out: % inhibition at 0.2 μM; for inhibition at 2 µM: read-out: % inhibition at 2 μM
Experimental: Test A: Antiviral Assay in MT4 Cells
MT-4 cells were next mixed with HIV-IIIb at an m.o.i of 0.003 for 1 hour, after which time 35 μL of virus/cell mixture (2000 cells) was immediately added to each well containing 40 μL of diluted compound. The plates were then incubated at 37° C. for 5 days. […] Cell lysis was carried out by incubating at room temperature for 10 min and then chemiluminescence was read.

[1] = Test B: Cytotoxicity Assay; assay type: cell-based; conditions: human, uninfected MT-4 cells, same protocol as Test A
Outline: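 Uninfected MT-4 cells (2000 per well) incubated with diluted compound at 37° C. for 5 days, following the antiviral protocol without HIV-IIIb.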

SMILES | inhibition at 0.2 µM (HIV-IIIb) [%] | inhibition at 2 µM (HIV-IIIb) [%] | CC50 at 5 days [1] [µM]
COCCC(=O)Nc1nn(C)c2c(-c3ccc(C#CC(C)(C)O)nc3[C@H](Cc3cc(F)cc(F)c3)NC(=O)Cn3nc(C(F)F)c4c3C(F)(F)[C@@H]3C[C@H]43)ccc(Cl)c12 [Compound 85, N-(4-chloro-7-(2-((S)-1-(2-((3b-S,4aR)-3-(difluoromethyl)-5,5-difluoro-3b,4,4a,5-tetrahydro-1H-cyclopropa[3,4]cyclopenta[1,2-c]pyrazol-1-yl)acetamido)-2-(3,5-difluorophenyl)ethyl)-6-(3-hydroxy-3-methylbut-1-yn-1-yl)pyridin-3-yl)-1-methyl-1H-indazol-3-yl)-3-methoxypropanamide] | 96 | 96 | 7.85
Cn1nc(NC(=O)C2CC2)c2c(Cl)ccc(-c3ccc(C#CC(C)(C)O)nc3[C@H](Cc3cc(F)cc(F)c3)NC(=O)Cn3nc(C(F)F)c4c3C(F)(F)[C@@H]3C[C@H]43)c21 [Compound 86, N-(4-chloro-7-(2-((S)-1-(2-((3b-S,4aR)-3-(difluoromethyl)-5,5-difluoro-3b,4,4a,5-tetrahydro-1H-cyclopropa[3,4]cyclopenta[1,2-c]pyrazol-1-yl)acetamido)-2-(3,5-difluorophenyl)ethyl)-6-(3-hydroxy-3-methylbut-1-yn-1-yl)pyridin-3-yl)-1-methyl-1H-indazol-3-yl)cyclopropanecarboxamide] | 99 | 99 | 6.47
Cn1nc(NC(=O)c2ccno2)c2c(Cl)ccc(-c3ccc(C#CC(C)(C)O)nc3[C@H](Cc3cc(F)cc(F)c3)NC(=O)Cn3nc(C(F)F)c4c3C(F)(F)[C@@H]3C[C@H]43)c21 [Compound 87, N-(4-chloro-7-(2-((S)-1-(2-((3b-S,4aR)-3-(difluoromethyl)-5,5-difluoro-3b,4,4a,5-tetrahydro-1H-cyclopropa[3,4]cyclopenta[1,2-c]pyrazol-1-yl)acetamido)-2-(3,5-difluorophenyl)ethyl)-6-(3-hydroxy-3-methylbut-1-yn-1-yl)pyridin-3-yl)-1-methyl-1H-indazol-3-yl)isoxazole-5-carboxamide] | 95 | 96 | 6.8
Cn1nc(NC(=O)CO)c2c(Cl)ccc(-c3ccc(C#CC(C)(C)O)nc3[C@H](Cc3cc(F)cc(F)c3)NC(=O)Cn3nc(C(F)F)c4c3C(F)(F)[C@@H]3C[C@H]43)c21 [Compound 88, N—((S)-1-(3-(4-chloro-3-(2-hydroxyacetamido)-1-methyl-1H-indazol-7-yl)-6-(3-hydroxy-3-methylbut-1-yn-1-yl)pyridin-2-yl)-2-(3,5-difluorophenyl)ethyl)-2-((3b-S,4aR)-3-(difluoromethyl)-5,5-difluoro-3b,4,4a,5-tetrahydro-1H-cyclopropa[3,4]cyclopenta[1,2-c]pyrazol-1-yl)acetamide] | 100 | 100 | 8.49
Cn1nc(NC(=O)C(C)(C)O)c2c(Cl)ccc(-c3ccc(C#CC(C)(C)O)nc3[C@H](Cc3cc(F)cc(F)c3)NC(=O)Cn3nc(C(F)F)c4c3C(F)(F)[C@@H]3C[C@H]43)c21 [Compound 89, N-(4-chloro-7-(2-((S)-1-(2-((3b-S,4aR)-3-(difluoromethyl)-5,5-difluoro-3b,4,4a,5-tetrahydro-1H-cyclopropa[3,4]cyclopenta[1,2-c]pyrazol-1-yl)acetamido)-2-(3,5-difluorophenyl)ethyl)-6-(3-hydroxy-3-methylbut-1-yn-1-yl)pyridin-3-yl)-1-methyl-1H-indazol-3-yl)-2-hydroxy-2-methylpropanamide] | 95 | 95 | 7.77
COC(=O)Nc1nn(C)c2c(-c3ccc(C#CC(C)(C)O)nc3[C@H](Cc3cc(F)cc(F)c3)NC(=O)Cn3nc(C(F)F)c4c3C(F)(F)[C@@H]3C[C@H]43)ccc(Cl)c12 [Compound 90D, methyl (4-chloro-7-(2-((S)-1-(2-((3b-S,4aR)-3-(difluoromethyl)-5,5-difluoro-3b,4,4a,5-tetrahydro-1H-cyclopropa[3,4]cyclopenta[1,2-c]pyrazol-1-yl)acetamido)-2-(3,5-difluorophenyl)ethyl)-6-(3-hydroxy-3-methylbut-1-yn-1-yl)pyridin-3-yl)-1-methyl-1H-indazol-3-yl)carbamate] | 97 | 97 | 7.62
CCNc1nn(C)c2c(-c3ccc(C#CC(C)(C)O)nc3[C@H](Cc3cc(F)cc(F)c3)NC(=O)Cn3nc(C(F)F)c4c3C(F)(F)[C@@H]3C[C@H]43)ccc(Cl)c12 [Compound 91E, N—((S)-1-(3-(4-chloro-3-(ethylamino)-1-methyl-1H-indazol-7-yl)-6-(3-hydroxy-3-methylbut-1-yn-1-yl)pyridin-2-yl)-2-(3,5-difluorophenyl)ethyl)-2-((3b-S,4aR)-3-(difluoromethyl)-5,5-difluoro-3b,4,4a,5-tetrahydro-1H-cyclopropa[3,4]cyclopenta[1,2-c]pyrazol-1-yl)acetamide] | 100 | 100 | 9.38
Cn1nc(NC(N)=O)c2c(Cl)ccc(-c3ccc(C#CC(C)(C)O)nc3[C@H](Cc3cc(F)cc(F)c3)NC(=O)Cn3nc(C(F)F)c4c3C(F)(F)[C@@H]3C[C@H]43)c21 [Compound 92, N—((S)-1-(3-(4-chloro-1-methyl-3-ureido-1H-indazol-7-yl)-6-(3-hydroxy-3-methylbut-1-yn-1-yl)pyridin-2-yl)-2-(3,5-difluorophenyl)ethyl)-2-((3bS,4aR)-3-(difluoromethyl)-5,5-difluoro-3b,4,4a,5-tetrahydro-1H-cyclopropa[3,4]cyclopenta[1,2-c]pyrazol-1-yl)acetamide] | 100 | 100 | 6.24
Cn1nc(NCC#N)c2c(Cl)ccc(-c3ccc(C#CC(C)(C)O)nc3[C@H](Cc3cc(F)cc(F)c3)NC(=O)Cn3nc(C(F)F)c4c3C(F)(F)[C@@H]3C[C@H]43)c21 [Compound 93, N—((S)-1-(3-(4-chloro-3-((cyanomethyl)amino)-1-methyl-1H-indazol-7-yl)-6-(3-hydroxy-3-methylbut-1-yn-1-yl)pyridin-2-yl)-2-(3,5-difluorophenyl)ethyl)-2-((3b-S,4aR)-3-(difluoromethyl)-5,5-difluoro-3b,4,4a,5-tetrahydro-1H-cyclopropa[3,4]cyclopenta[1,2-c]pyrazol-1-yl)acetamide] | 92 | 92 | 4.81
CC(=O)Nc1nn(C)c2c(-c3ccc(C#CC(C)(C)O)nc3[C@H](Cc3cc(F)cc(F)c3)NC(=O)Cn3nc(C(F)F)c4c3C(F)(F)[C@@H]3C[C@H]43)ccc(Cl)c12 [Compound 94, N—((S)-1-(3-(3-acetamido-4-chloro-1-methyl-1H-indazol-7-yl)-6-(3-hydroxy-3-methylbut-1-yn-1-yl)pyridin-2-yl)-2-(3,5-difluorophenyl)ethyl)-2-((3b-S,4aR)-3-(difluoromethyl)-5,5-difluoro-3b,4,4a,5-tetrahydro-1H-cyclopropa[3,4]cyclopenta[1,2-c]pyrazol-1-yl)acetamide] | 100 | 100 | 7.58
CCC(=O)Nc1nn(C)c2c(-c3ccc(C#CC(C)(C)O)nc3[C@H](Cc3cc(F)cc(F)c3)NC(=O)Cn3nc(C(F)F)c4c3C(F)(F)[C@@H]3C[C@H]43)ccc(Cl)c12 [Compound 95, N-(4-chloro-7-(2-((S)-1-(2-((3b-S,4aR)-3-(difluoromethyl)-5,5-difluoro-3b,4,4a,5-tetrahydro-1H-cyclopropa[3,4]cyclopenta[1,2-c]pyrazol-1-yl)acetamido)-2-(3,5-difluorophenyl)ethyl)-6-(3-hydroxy-3-methylbut-1-yn-1-yl)pyridin-3-yl)-1-methyl-1H-indazol-3-yl)propionamide] | 93 | 93 | 6.51
CC(C)C(=O)Nc1nn(C)c2c(-c3ccc(C#CC(C)(C)O)nc3[C@H](Cc3cc(F)cc(F)c3)NC(=O)Cn3nc(C(F)F)c4c3C(F)(F)[C@@H]3C[C@H]43)ccc(Cl)c12 [Compound 96, N-(4-chloro-7-(2-((S)-1-(2-((3b-S,4aR)-3-(difluoromethyl)-5,5-difluoro-3b,4,4a,5-tetrahydro-1H-cyclopropa[3,4]cyclopenta[1,2-c]pyrazol-1-yl)acetamido)-2-(3,5-difluorophenyl)ethyl)-6-(3-hydroxy-3-methylbut-1-yn-1-yl)pyridin-3-yl)-1-methyl-1H-indazol-3-yl)isobutyramide] | 100 | 100 | 7
Cn1nc(NC(=O)C(F)F)c2c(Cl)ccc(-c3ccc(C#CC(C)(C)O)nc3[C@H](Cc3cc(F)cc(F)c3)NC(=O)Cn3nc(C(F)F)c4c3C(F)(F)[C@@H]3C[C@H]43)c21 [Compound 97, N-(4-chloro-7-(2-((S)-1-(2-((3b-S,4aR)-3-(difluoromethyl)-5,5-difluoro-3b,4,4a,5-tetrahydro-1H-cyclopropa[3,4]cyclopenta[1,2-c]pyrazol-1-yl)acetamido)-2-(3,5-difluorophenyl)ethyl)-6-(3-hydroxy-3-methylbut-1-yn-1-yl)pyridin-3-yl)-1-methyl-1H-indazol-3-yl)-2,2-difluoroacetamide] | 100 | 100 | 7.6
